The text below walks through data of PubChem BioAssay AID489011 (The Scripps Research Institute Molecular Screening Center, 2010).

The structures appear in SMILES notation. Calls of active or inactive are those of the source.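 How the source made its calls: active means IC50 for blocking malaria parasite growth in red cells at or below 10 µM; inactive means the rest.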

The test concerns P. falciparum 3D7 in RBCs, 3H-hypoxanthine incorporation, 48 h. Kind of test: P. falciparum blood-stage growth inhibition potency, late-stage follow-up, M18AAP inhibitor project, cell-based, radiolabel, RBCs, powder samples (AID 489011).
Usually IC50 stands for the concentration at which inhibition is half-maximal. As for `CCC(C)c1ccc(O)c(N)c1` (configuration not stated), the IC50 is 6 µM.
Take `Cc1cc(C)n2c(=S)[nH]nc2n1`: the IC50 was > 25 µM (inactive).
With `Oc1ccc(-c2csc(-c3ccccc3)n2)cc1O` the figure was > 25 µM (inactive).
In the case of `Br/C(C=Nn1cnnc1)=C\c1ccccc1`, the IC50 was 11 µM (inactive).
As to `Oc1ccc(CCNc2c3ccccc3nc3ccccc23)cc1O`, the IC50 was less than 1.6 µM.
For `O=C(COc1ccccc1C(=O)N/N=C/c1ccc(O)c(O)c1)N/N=C/c1ccc(O)c(O)c1` the value was 6 µM; for `Cc1cc(C)cc(C(=O)n2cnnc2N)c1`, 7 µM.
